Measured values: US10526339B2, “Substituted glucosepanes and compositions thereof” (YALE UNIVERSITY, priority 2015, dated 2020)

How the values were obtained:
[1] = EXSY NOESY conformational exchange (E/Z isomerization); assay type: physicochemical
Excerpt: With synthetic glucosepane (5) in hand, we next investigated its structural features using multidimensional NMR techniques. […] Indeed, although the original glucosepane isolation report did note the possibility of E/Z isomerism in acyclic 2-amino imidazoles, the presence of these exchange peaks in the case of glucosepane have previously been incorrectly attributed to stereoisomerism at the C-8a stereocenter.^(35) Using an EXSY (EXchange SpectroscopY) NOESY sequence,^(34) the inventors were able to calculate an approximate rate for this conformational exchange process on the order of 3 s^−1 in D2O.^28
The integral ratios and tm were used to calculate an approximate rate by the following formula:^5
[formula] Xa=mole fraction of conformer A Xb=mole fraction of conformer B Iaa=integral intensity for diagonal peak (conformer A) Ibb=integral intensity for diagonal peak (conformer B) Iab and Iba=integral intensity for cross-peak Sample calculation with the data provided above: […]

[2] = Glucosepane pKa study (UV pH titration)
Excerpt: The inventors next took advantage of glucospane's intrinsic spectral properties to measure the pKa of the iso-imidazole core.

[3] = Hydrogen/deuterium exchange at C-8a in D2O; assay type: physicochemical; settings: basic conditions (aqueous NaOD), either epimer

Row | Structure (SMILES) | approximate rate of conformational exchange (E/Z isomerization about exocyclic C2-N bond) ([1]; in D2O, EXSY NOESY) | pKa [2] | time for quantitative hydrogen/deuterium exchange at the C-8a H-atom [3] | k ([1]; sample calculation from 2D NOESY integrals, tm 1.00 sec)
1 | N[C@@H](CCCCN1C[C@@H](O)[C@@H](O)C[C@@H]2N=C(NCCC[C@H](N)C(=O)O)N=C21)C(=O)O (stereo in doubt) [Compound 5, Glucosepane Tris-Trifluoroacetate] | ~3 s⁻¹ | ~12 | < 60 min | 
2 | N[C@@H](CCCCN1C[C@@H](O)[C@@H](O)C[C@@H]2N=C(NCCC[C@H](N)C(=O)O)N=C21)C(=O)O [Compound 5, Glucosepane Tris-Trifluoroacetate] |  |  |  | 2.89 s⁻¹
